In patent US8153795B2, “Substituted 1-oxa-3,8-diazaspiro[4.5]-decan-2-one-compounds and the use thereof for producing drugs” (Gruenenthal GmbH, priority 2005, dated 2012):

What was measured:
NA transporter = target: T1, NA transporter (Rattus norvegicus, UniProt Q63380); test: noradrenalin uptake inhibition in rat brain synaptosomes (hypothalamus), [3H]-NA; type: biochemical
T1 construct: from tissue; host or cells: rat brain synaptosomes (P2 fraction) from hypothalamus
Excerpt: (§1) a) Method for Determining Noradrenalin and 5-HT Uptake Inhibition:
(§2) Synaptosomes from rat brain regions are freshly isolated for in vitro studies, as described in the publication “The isolation of nerve endings from brain” by E. G. Gray and V. P. Whittaker, J. Anatomy 96, pages 79-88, 1962. The corresponding literature description is hereby introduced as a reference and is deemed to be part of the disclosure.
(§3) The tissue (hypothalamus for the determination of noradrenalin uptake inhibition and medulla and pons for the determination of 5-HT uptake inhibition) is homogenised in ice-cooled 0.32 M sucrose (100 mg of tissue/1 mL) in a glass homogeniser with Teflon pestle using five complete up and down strokes at 840 revolutions/minute.
(§4) The homogenate is centrifuged at 4° C. for 10 minutes at 1000 g. After subsequent centrifugation at 17000 g for 55 minutes, the synaptosomes (P2 fraction) are obtained, which are resuspended in 0.32 M […] (0.5 mL/100 mg of original weight).
(§5) The particular uptake is measured in a 96-well microtitre plate. The volume is 250 μl and the incubation proceeds at room temperature (approx. 20-25° C.) under an O2 atmosphere.
(§6) The incubation time is 7.5 minutes for [^3H]-NA and 5 minutes for [^3H]-5-HT. The 96 samples are then filtered through a Unifilter GF/B® microtitre plate (Packard) and washed with 200 mL of incubated buffer using a “Brabdel MPXRI-96T Cell-Harvester”. The Unifilter GF/B plate is dried for 1 hour at 55° C. The plate is then sealed with a Back Seal® (Packard) and 35 μl of scintillation fluid are added per well (Ultima Gold®, Packard). After sealing with a top Seal® (Packard) and establishing an equilibrium (around 5 hours), radioactivity is determined in a “Trilux 1450 Microbeta” (Wallac).
(§7) The quantity of protein used in the above determination corresponds to the values known from the literature, as for example described in “Protein measurement with the folin phenol reagent”, Lowry et al., J. Biol. Chem., 193, 265-275, 1951.
(§8) A detailed description of the method may additionally be found in the literature, for example in M. Ch. Frink, H.-H. Hennies, W. Engelberger, M. Haurand and B. Wilffert (1996) Arzneim.-Forsch./Drug Res. 46 (III), 11, 1029-1036.

5-HT transporter = target: T2, 5-HT transporter (Rattus norvegicus, UniProt P31652); test: 5-HT uptake inhibition in rat brain synaptosomes (medulla and pons), [3H]-5-HT; type: biochemical
T2 construct: from tissue; host or cells: rat brain synaptosomes (P2 fraction) from medulla and pons
Excerpt: as §1, §2, §3, §4, §5, §6, §7, §8

T2 sequence (P31652 whole entry): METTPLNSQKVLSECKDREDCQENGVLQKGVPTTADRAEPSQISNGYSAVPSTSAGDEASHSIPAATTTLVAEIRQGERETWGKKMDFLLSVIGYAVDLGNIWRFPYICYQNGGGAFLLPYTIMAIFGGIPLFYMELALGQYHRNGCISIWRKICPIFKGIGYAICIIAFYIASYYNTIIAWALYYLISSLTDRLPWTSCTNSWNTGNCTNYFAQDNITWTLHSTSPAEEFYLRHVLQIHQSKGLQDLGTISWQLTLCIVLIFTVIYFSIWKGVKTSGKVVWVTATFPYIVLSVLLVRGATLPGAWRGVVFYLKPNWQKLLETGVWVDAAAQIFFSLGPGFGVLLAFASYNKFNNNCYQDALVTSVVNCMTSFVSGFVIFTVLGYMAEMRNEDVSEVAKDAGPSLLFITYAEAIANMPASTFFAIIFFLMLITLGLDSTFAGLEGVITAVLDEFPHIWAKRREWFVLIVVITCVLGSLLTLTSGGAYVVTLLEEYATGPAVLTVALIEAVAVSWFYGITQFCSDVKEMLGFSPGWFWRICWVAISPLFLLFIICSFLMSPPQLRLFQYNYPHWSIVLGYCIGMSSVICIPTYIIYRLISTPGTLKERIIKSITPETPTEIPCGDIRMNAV
T1 sequence (Q63380 1-617): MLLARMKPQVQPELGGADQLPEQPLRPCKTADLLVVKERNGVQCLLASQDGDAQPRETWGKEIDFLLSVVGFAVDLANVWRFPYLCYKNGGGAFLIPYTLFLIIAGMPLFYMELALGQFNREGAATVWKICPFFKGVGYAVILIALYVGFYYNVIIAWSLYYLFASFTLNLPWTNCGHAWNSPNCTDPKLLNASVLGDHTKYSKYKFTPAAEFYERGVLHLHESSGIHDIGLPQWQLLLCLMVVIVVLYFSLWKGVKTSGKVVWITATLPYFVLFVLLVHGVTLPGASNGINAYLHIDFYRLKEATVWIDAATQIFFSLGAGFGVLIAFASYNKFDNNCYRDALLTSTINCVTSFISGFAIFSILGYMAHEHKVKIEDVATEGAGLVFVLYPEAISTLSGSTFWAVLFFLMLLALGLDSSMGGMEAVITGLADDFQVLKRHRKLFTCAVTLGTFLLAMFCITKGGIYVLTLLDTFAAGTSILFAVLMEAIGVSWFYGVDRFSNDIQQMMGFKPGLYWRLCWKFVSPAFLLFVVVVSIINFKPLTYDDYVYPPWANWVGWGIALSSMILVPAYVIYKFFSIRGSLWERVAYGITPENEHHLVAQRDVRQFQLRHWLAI

COCCNC(=S)N1CCC2(CC1)CN(Cc1cccc(Br)c1)C(=O)O2 [Example 5, 3-(3-bromobenzyl)-2-oxo-1-oxa-3,8-diazaspiro[4.5]decane-8-carbothioic acid (2-methoxyethyl)amide]
inhibition at 10 µM (NA transporter): 70%

CCOC(=O)CC(C)NC(=S)N1CCC2(CC1)CN(Cc1cccc(Br)c1)C(=O)O2 (stereo not shown) [Example 9, 3-{[3-(3-bromobenzyl)-2-oxo-1-oxa-3,8-diazaspiro[4.5]decane-8-carbothioyl]amino}butanoic acid ethyl ester]
inhibition at 10 µM (NA transporter): 81%

O=C1OC2(CCN(C(=S)Nc3ccccc3)CC2)CN1Cc1ccccc1-c1ccccc1 [Example 18, 3-biphenyl-2-ylmethyl-2-oxo-1-oxa-3,8-diazaspiro[4.5]decan-8-carbothioic acid phenylamide]
inhibition at 10 µM (NA transporter): 55%

CCSc1ncccc1C(=O)N1CCC2(CC1)CN(Cc1cccc(Br)c1)C(=O)O2 [Example 121, 3-(3-bromobenzyl)-8-(2-ethylsulfanylpyridine-3-carbonyl)-1-oxa-3,8-diazaspiro[4.5]decan-2-one]
inhibition at 10 µM (5-HT transporter): 77%

Cc1cc(C)cc(CN2CC3(CCN(C(=O)c4cc(C)on4)CC3)OC2=O)c1 [Example 122, 3-(3,5-dimethylbenzyl)-8-(5-methylisoxazole-3-carbonyl)-1-oxa-3,8-diazaspiro[4.5]decan-2-one]
inhibition at 10 µM (5-HT transporter): 68%

CCCCC(=O)N1CCC2(CC1)CN(Cc1cc([N+](=O)[O-])ccc1OC)C(=O)O2 [Example 123, 3-(2-methoxy-5-nitrobenzyl)-8-pentanoyl-1-oxa-3,8-diazaspiro[4.5]decan-2-one]
inhibition at 10 µM (5-HT transporter): 71%

Cc1cc(C)cc(CN2CC3(CCN(C(=O)c4ccc(Br)cc4)CC3)OC2=O)c1 [Example 124, 8-(4-bromobenzoyl)-3-(3,5-dimethylbenzyl)-1-oxa-3,8-diazaspiro[4.5]decan-2-one]
inhibition at 10 µM (5-HT transporter): 72%

COc1ccc([N+](=O)[O-])cc1CN1CC2(CCN(C(=O)c3cc(C(C)(C)C)oc3C)CC2)OC1=O [Example 125, 8-(5-tert-butyl-2-methylfuran-3-carbonyl)-3-(2-methoxy-5-nitrobenzyl)-1-oxa-3,8-diazaspiro[4.5]decan-2-one]
inhibition at 10 µM (5-HT transporter): 63%

Cc1cc(C)cc(CN2CC3(CCN(C(=O)c4cccc(Cl)c4)CC3)OC2=O)c1 [Example 126, 8-(3-chlorobenzoyl)-3-(3,5-dimethylbenzyl)-1-oxa-3,8-diazaspiro[4.5]decan-2-one]
inhibition at 10 µM (5-HT transporter): 64%

CCSc1ncccc1C(=O)N1CCC2(CC1)CN(Cc1ccccc1C(F)(F)F)C(=O)O2 [Example 127, 8-(2-ethylsulfanylpyridine-3-carbonyl)-3-(2-trifluoromethylbenzyl)-1-oxa-3,8-diazaspiro[4.5]decan-2-one]
inhibition at 10 µM (5-HT transporter): 63%

Cc1cc(C)cc(CN2CC3(CCN(C(=O)c4ccno4)CC3)OC2=O)c1 [Example 128, 3-(3,5-dimethylbenzyl)-8-(isoxazole-5-carbonyl)-1-oxa-3,8-diazaspiro[4.5]decan-2-one]
inhibition at 10 µM (5-HT transporter): 62%

O=C1OC2(CCN(C(=O)c3ccccn3)CC2)CN1Cc1cccc(Br)c1 [Example 129, 3-(3-bromobenzyl)-8-(pyridine-2-carbonyl)-1-oxa-3,8-diazaspiro[4.5]decan-2-one]
inhibition at 10 µM (5-HT transporter): 77%

Cc1cc(C)cc(CN2CC3(CCN(C(=O)c4cccs4)CC3)OC2=O)c1 [Example 130, 3-(3,5-dimethylbenzyl)-8-(thiophene-2-carbonyl)-1-oxa-3,8-diazaspiro[4.5]decan-2-one]
inhibition at 10 µM (5-HT transporter): 70%

Cc1cc(C)cc(CN2CC3(CCN(C(=O)c4ccc(F)c(Cl)c4)CC3)OC2=O)c1 [Example 131, 8-(3-chloro-4-fluorobenzoyl)-3-(3,5-dimethylbenzyl)-1-oxa-3,8-diazaspiro[4.5]decan-2-one]
inhibition at 10 µM (5-HT transporter): 63%

Cc1cc(C)cc(CN2CC3(CCN(C(=O)c4c(F)ccc(C)c4F)CC3)OC2=O)c1 [Example 132, 8-(2,6-difluoro-3-methylbenzoyl)-3-(3,5-dimethylbenzyl)-1-oxa-3,8-diazaspiro[4.5]decan-2-one]
inhibition at 10 µM (5-HT transporter): 65%

COC(=O)CCC(=O)N1CCC2(CC1)CN(Cc1cccc(Br)c1)C(=O)O2 [Example 133, 4-[3-(3-bromobenzyl)-2-oxo-1-oxa-3,8-diazaspiro[4.5]dec-8-yl]-4-oxobutanoic acid methyl ester]
inhibition at 10 µM (5-HT transporter): 64%

CCC(CC)C(=O)N1CCC2(CC1)CN(Cc1cccc(C#N)c1)C(=O)O2 [Example 134, 3-[8-(2-ethylbutyryl)-2-oxo-1-oxa-3,8-diazaspiro[4.5]dec-3-ylmethyl]benzonitrile]
inhibition at 10 µM (5-HT transporter): 64%

N#Cc1cccc(CN2CC3(CCN(S(=O)(=O)Cc4cccc(Br)c4)CC3)OC2=O)c1 [Example 135, 3-[8-(3-bromobenzylsulfonyl)-2-oxo-1-oxa-3,8-diazaspiro[4.5]dec-3-ylmethyl]benzonitrile]
inhibition at 10 µM (5-HT transporter): 69%

Cc1ccc(C(=O)N2CCC3(CC2)CN(Cc2ccc(F)c(F)c2)C(=O)O3)cc1 [Example 136, 3-(3,4-difluorobenzyl)-8-(4-methylbenzoyl)-1-oxa-3,8-diazaspiro[4.5]decan-2-one]
inhibition at 10 µM (5-HT transporter): 67%

COc1ccc([N+](=O)[O-])cc1CN1CC2(CCN(C(=O)c3cccc(N(C)C)c3)CC2)OC1=O [Example 138, 8-(3-dimethylaminobenzoyl)-3-(2-methoxy-5-nitrobenzyl)-1-oxa-3,8-diazaspiro[4.5]decan-2-one]
inhibition at 10 µM (5-HT transporter): 65%

O=C1OC2(CCN(C(=O)c3c(Cl)cccc3Cl)CC2)CN1Cc1ccccc1F [Example 139, 8-(2,6-dichlorobenzoyl)-3-(2-fluorobenzyl)-1-oxa-3,8-diazaspiro[4.5]decan-2-one]
inhibition at 10 µM (5-HT transporter): 70%

COc1ccc([N+](=O)[O-])cc1CN1CC2(CCN(C(=O)c3cccnc3Oc3ccccc3)CC2)OC1=O [Example 140, 3-(2-methoxy-5-nitrobenzyl)-8-(2-phenoxypyridine-3-carbonyl)-1-oxa-3,8-diazaspiro[4.5]decan-2-one]
inhibition at 10 µM (5-HT transporter): 64%

COc1cccc(CC(=O)N2CCC3(CC2)CN(Cc2ccc4ccccc4c2)C(=O)O3)c1 [Example 141, 8-[2-(3-methoxyphenyl)acetyl]-3-naphthalen-2-ylmethyl-1-oxa-3,8-diazaspiro[4.5]decan-2-one]
inhibition at 10 µM (5-HT transporter): 78%

N#Cc1ccc(CN2CC3(CCN(S(=O)(=O)c4ccc5c(c4)CN(C(=O)C(F)(F)F)CC5)CC3)OC2=O)cc1 [Example 142, 4-{2-oxo-8-[2-(2,2,2-trifluoroacetyl)-1,2,3,4-tetrahydroisoquinoline-7-sulfonyl]-1-oxa-3,8-diazaspiro[4.5]dec-3-ylmethyl}benzonitrile]
inhibition at 10 µM (5-HT transporter): 67%

O=C1OC2(CCN(C(=O)c3cc(C(F)(F)F)cc(C(F)(F)F)c3)CC2)CN1Cc1ccc(C(F)(F)F)cc1 [Example 143, 8-(3,5-bis-trifluoromethylbenzoyl)-3-(4-trifluoromethylbenzyl)-1-oxa-3,8-diazaspiro[4.5]decan-2-one]
inhibition at 10 µM (5-HT transporter): 66%

O=C1OC2(CCN(C(=O)c3cccnc3Oc3ccccc3)CC2)CN1Cc1cccc(Br)c1 [Example 144, 3-(3-bromobenzyl)-8-(2-phenoxypyridine-3-carbonyl)-1-oxa-3,8-diazaspiro[4.5]decan-2-one]
inhibition at 10 µM (5-HT transporter): 81%

COc1cccc(CC(=O)N2CCC3(CC2)CN(Cc2cc([N+](=O)[O-])ccc2OC)C(=O)O3)c1 [Example 145, 3-(2-methoxy-5-nitrobenzyl)-8-[2-(3-methoxyphenyl)acetyl]-1-oxa-3,8-diazaspiro[4.5]decan-2-one]
inhibition at 10 µM (5-HT transporter): 77%

O=C1OC2(CCN(C(=O)c3cccnc3Oc3ccccc3)CC2)CN1Cc1ccc(F)c(F)c1 [Example 146, 3-(3,4-difluorobenzyl)-8-(2-phenoxypyridine-3-carbonyl)-1-oxa-3,8-diazaspiro[4.5]decan-2-one]
inhibition at 10 µM (5-HT transporter): 63%

Cc1cc(C(=O)N2CCC3(CC2)CN(Cc2cccc(C#N)c2)C(=O)O3)ccc1Br [Example 147, 3-[8-(4-bromo-3-methylbenzoyl)-2-oxo-1-oxa-3,8-diazaspiro[4.5]dec-3-ylmethyl]benzonitrile]
inhibition at 10 µM (5-HT transporter): 73%

COc1ccc([N+](=O)[O-])cc1CN1CC2(CCN(C(=O)Cc3ccc(OC)c(OC)c3)CC2)OC1=O [Example 150, 8-[2-(3,4-dimethoxyphenyl)acetyl]-3-(2-methoxy-5-nitrobenzyl)-1-oxa-3,8-diazaspiro[4.5]decan-2-one]
inhibition at 10 µM (5-HT transporter): 84%

N#Cc1ccccc1CN1CC2(CCN(C(=O)c3ccc([N+](=O)[O-])cc3Cl)CC2)OC1=O [Example 151, 2-[8-(2-chloro-4-nitrobenzoyl)-2-oxo-1-oxa-3,8-diazaspiro[4.5]dec-3-ylmethyl]benzonitrile]
inhibition at 10 µM (5-HT transporter): 71%
